The values below come from patent US8410117B2, “Imidazopyrimidine derivatives” (Hoffmann-La Roche Inc., priority 2010, dated 2013).

As usually defined, the IC50 is the midpoint of a concentration-inhibition curve.

T1 sequence (Q9Y233 1-779 isoform Q9Y233-1): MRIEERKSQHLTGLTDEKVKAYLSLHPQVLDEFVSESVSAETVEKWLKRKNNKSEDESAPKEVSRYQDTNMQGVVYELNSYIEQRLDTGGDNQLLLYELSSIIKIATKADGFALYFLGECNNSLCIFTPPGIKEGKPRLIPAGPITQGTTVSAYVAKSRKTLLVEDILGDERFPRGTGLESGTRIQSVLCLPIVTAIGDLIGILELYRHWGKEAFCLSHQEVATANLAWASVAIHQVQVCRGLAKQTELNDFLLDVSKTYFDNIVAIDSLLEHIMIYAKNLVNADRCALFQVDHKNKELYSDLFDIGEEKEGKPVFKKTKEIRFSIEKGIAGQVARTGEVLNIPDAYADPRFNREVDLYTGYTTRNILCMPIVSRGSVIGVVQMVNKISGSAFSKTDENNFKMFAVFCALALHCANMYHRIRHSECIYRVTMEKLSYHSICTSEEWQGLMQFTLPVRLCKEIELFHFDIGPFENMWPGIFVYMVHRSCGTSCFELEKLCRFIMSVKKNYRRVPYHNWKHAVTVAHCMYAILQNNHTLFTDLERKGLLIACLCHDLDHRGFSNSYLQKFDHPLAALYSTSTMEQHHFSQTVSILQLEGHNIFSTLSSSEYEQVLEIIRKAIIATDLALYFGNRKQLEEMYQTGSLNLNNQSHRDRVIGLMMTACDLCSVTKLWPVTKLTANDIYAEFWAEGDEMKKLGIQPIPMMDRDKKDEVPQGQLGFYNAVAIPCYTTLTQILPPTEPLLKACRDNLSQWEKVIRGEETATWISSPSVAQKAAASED

The test concerns the target T1, human PDE10A (Homo sapiens, UniProt Q9Y233).
T1 construct: The human PDE10A full length assay; purchased Enzo Life Science, Lausen, Switzerland SE-534
In words: human PDE10A full length Scintillation Proximity Assay (SPA). The test is classed as biochemical. Conditions: 50 nM cGMP and 50 nM [3H]-cGMP, 20 minutes at room temperature; read-out: PDE10A inhibition IC50. As for the experimental part:
The following test was carried out in order to determine the activity of the compounds of the present invention. PDE10 activity of the compounds of the present invention was determined using a Scintillation Proximity Assay (SPA)-based method similar to the one previously described (Fawcett, L. et al., Proc Natl Acad Sci USA (2000) 97(7):3702-3707).
The human PDE10A full length assay was performed in 96-well micro titer plates. The reaction mixture of 50 μl contained 20 mM HEPES pH=7.5/10 mM MgCl2/0.05 mg/ml BSA (Sigma cat. #A-7906), 50 nM cGMP (Sigma, cat. #G6129) and 50 nM [^3H]-cGMP (GE Healthcare, cat. #TRK392 S.A. 13.2 Ci/mmol), 3.75 ng/well PDE10A enzyme (Enzo Life Science, Lausen, Switzerland cat #SE-534) with or without a specific test compound. A range of concentrations of the potential inhibitor was used to generate data for calculating the concentration of inhibitor resulting in 50% of the effect (e.g. IC50, the concentration of the competitor inhibiting PDE10A activity by 50%). Non-specific activity was tested without the enzyme. The reaction was initiated by the addition of the substrate solution (cGMP and [^3H]-cGMP) and allowed to progress for 20 minutes at room temperature. The reaction was terminated by adding 25 μl of YSi-SPA scintillation beads (GE Healthcare, cat. #RPNQ0150) in 18 mM zinc sulphate solution (stop reagent). After 1 h under shaking, the plate was centrifuged one minute at 170 g to allow beads to settle. Afterwards, radioactive counts were measured on a Perkin Elmer TopCount Scintillation plate reader.
In general terms: Scintillation proximity formats need no separation of bound from free tracer.
On to `Cn1ncc(C(=O)N2CCCCC2)c1C(=O)Nc1ccn2cc(-c3ccccc3)nc2n1` [Example 52, 2-Methyl-4-(piperidine-1-carbonyl)-2H-pyrazole-3-carboxylic acid (2-phenyl-imidazo[1,2-a]pyrimidin-7-yl)-amide], for which the IC50 was 2.9 nM.
Then `Cn1ncc(C(=O)NCC(F)F)c1C(=O)Nc1ccn2cc(-c3ccccc3)nc2n1` [Example 129, N4-(2,2-difluoroethyl)-1-methyl-N5-(2-phenylimidazo[1,2-a]pyrimidin-7-yl)-1H-pyrazole-4,5-dicarboxamide], with 33.2 nM; and `CNC(=O)c1[nH]nnc1C(=O)Nc1ccn2cc(-c3ccccc3)nc2n1` [Example 65, 1H-[1,2,3]Triazole-4,5-dicarboxylic acid 5-methylamide 4-[(2-phenyl-imidazo[1,2-a]pyrimidin-7-yl)-amide]], with 34.8 nM.
Then `CN(C)C(=O)c1cnn(C)c1C(=O)Nc1ccn2cc(-c3cccc(O)c3)nc2n1` [Example 84, 2-Methyl-2H-pyrazole-3,4-dicarboxylic acid 4-dimethylamide 3-{[2-(3-hydroxy-phenyl)-imidazo[1,2-a]pyrimidin-7-yl]-amide}], with 3.8 nM.
`Cn1ncc(C(=O)N2CC(F)(F)C2)c1C(=O)Nc1ccn2cc(-c3ccccc3)nc2n1` [Example 34, 4-(3,3-Difluoro-azetidine-1-carbonyl)-2-methyl-2H-pyrazole-3-carboxylic acid (2-phenyl-imidazo[1,2-a]pyrimidin-7-yl)-amide]: the concentration for half-maximal inhibition (IC50) was 35 nM.
For the compound `CC(C)n1ncc(Cl)c1C(=O)Nc1ccn2cc(-c3ccccc3)nc2n1` [Example 10, 4-Chloro-2-isopropyl-2H-pyrazole-3-carboxylic acid (2-phenyl-imidazo[1,2-a]pyrimidin-7-yl)-amide], the IC50 amounted to 105 nM.
Then `Cn1cc(Cl)c(CNC(=O)c2cnn(C)c2C(=O)Nc2ccn3cc(-c4ccccc4)nc3n2)n1` [Example 158, N4-((4-chloro-1-methyl-1H-pyrazol-3-yl)methyl)-1-methyl-N5-(2-phenylimidazo[1,2-a]pyrimidin-7-yl)-1H-pyrazole-4,5-dicarboxamide], with 427 nM.
Under `CC(C)Cn1ncc(Cl)c1C(=O)Nc1ccn2cc(-c3ccccc3)nc2n1` [Example 12, 4-Chloro-2-isobutyl-2H-pyrazole-3-carboxylic acid (2-phenyl-imidazo[1,2-a]pyrimidin-7-yl)-amide] stands 18.8 nM; under `COCCN(C)C(=O)c1cnn(C)c1C(=O)Nc1ccn2cc(-c3ccccc3)nc2n1` [Example 55, 2-Methyl-2H-pyrazole-3,4-dicarboxylic acid 4-[(2-methoxy-ethyl)-methyl-amide]3-[(2-phenyl-imidazo[1,2-a]pyrimidin-7-yl)-amide]], 8.5 nM; under `CN(CCOCCF)C(=O)c1cnn(C)c1C(=O)Nc1ccn2cc(-c3cccc(OCCF)c3)nc2n1` [Example 109, 2-Methyl-2H-pyrazole-3,4-dicarboxylic acid 4-{[2-(2-fluoro-ethoxy)-ethyl]-methyl-amide}3-({2-[3-(2-fluoro-ethoxy)-phenyl]-imidazo[1,2-a]pyrimidin-7-yl}-amide)], 89 nM.
On to `CC(C)CN(C)C(=O)c1cnn(C)c1C(=O)Nc1ccn2cc(-c3ccccc3)nc2n1` [Example 71, 2-Methyl-2H-pyrazole-3,4-dicarboxylic acid 4-(isobutyl-methyl-amide) 3-[(2-phenyl-imidazo[1,2-a]pyrimidin-7-yl)-amide]], for which the IC50 was determined as 17.6 nM.
For the compound `CNC(=O)c1cnn(C)c1C(=O)Nc1ccn2cc(-c3cccc(Cl)c3)nc2n1` [Example 32, 2-Methyl-2H-pyrazole-3,4-dicarboxylic acid 3-{[2-(3-chloro-phenyl)-imidazo[1,2-a]pyrimidin-7-yl]-amide}4-methylamide], the IC50 came to 22.8 nM.
Under `O=C(Nc1ccn2cc(-c3ccccc3)nc2n1)c1cc([N+](=O)[O-])nn1C1CCCC1` [Example 14, 2-Cyclopentyl-5-nitro-2H-pyrazole-3-carboxylic acid (2-phenyl-imidazo[1,2-a]pyrimidin-7-yl)-amide] stands 125 nM; under `O=C(Nc1ccn2cc(-c3ccccc3)nc2n1)c1cccnc1C(=O)N1CCC1` [Example 44, 2-(Azetidine-1-carbonyl)-N-(2-phenyl-imidazo[1,2-a]pyrimidin-7-yl)-nicotinamide], 813 nM.
Then `CCN(C)C(=O)c1cnn(C)c1C(=O)Nc1ccn2cc(-c3cccc(OC)c3)nc2n1` [Example 87, N-4-ethyl-N5-(2-(3-methoxyphenyl)imidazo[1,2-a]pyrimidin-7-yl)-N-4,1-dimethyl-1H-pyrazole-4,5-dicarboxamide], with 5.5 nM; and `CCN(C)C(=O)c1cnn(C)c1C(=O)Nc1ccn2cc(-c3cccc(OCC(=O)OC)c3)nc2n1` [Example 100, [3-(7-{[4-(Ethyl-methyl-carbamoyl)-2-methyl-2H-pyrazole-3-carbonyl]-amino}-imidazo[1,2-a]pyrimidin-2-yl)-phenoxy]-acetic acid methyl ester], with 21.8 nM; and `Cc1nn(C)c(C(=O)Nc2ccn3cc(-c4ccccc4)nc3n2)c1Br` [Example 5, 4-Bromo-2,5-dimethyl-2H-pyrazole-3-carboxylic acid (2-phenyl-imidazo[1,2-a]pyrimidin-7-yl)-amide], with 26.8 nM.
Take `Cn1ncc(C(=O)NCc2ccn[nH]2)c1C(=O)Nc1ccn2cc(-c3ccccc3)nc2n1` [Example 113, N4-((1H-pyrazol-5-yl)methyl)-1-methyl-N5-(2-phenylimidazo[1,2-a]pyrimidin-7-yl)-1H-pyrazole-4,5-dicarboxamide]: the IC50 stood at 2.6 nM.
Then `CCn1ncc(C(=O)N2CCC2)c1C(=O)Nc1ccn2cc(-c3ccccc3)nc2n1` [Example 69, 4-(Azetidine-1-carbonyl)-2-ethyl-2H-pyrazole-3-carboxylic acid (2-phenyl-imidazo[1,2-a]pyrimidin-7-yl)-amide], with 4.4 nM; and `Cn1ncc(C(=O)NCc2ccncc2)c1C(=O)Nc1ccn2cc(-c3ccccc3)nc2n1` [Example 148, 1-methyl-N5-(2-phenylimidazo[1,2-a]pyrimidin-7-yl)-N4-(pyridin-4-ylmethyl)-1H-pyrazole-4,5-dicarboxamide], with 244 nM.
For the compound `Cn1ncc(C(=O)N2CCOCC2c2cccnc2)c1C(=O)Nc1ccn2cc(-c3ccccc3)nc2n1` (centres unmarked) [Example 137, 1-methyl-N-(2-phenylimidazo[1,2-a]pyrimidin-7-yl)-4-(3-(pyridin-3-yl)morpholine-4-carbonyl)-1H-pyrazole-5-carboxamide], the IC50 came to 117 nM.
As to `COc1cccc(C(=O)Nc2ccn3cc(-c4ccccc4)nc3n2)n1` [Example 22, 6-Methoxy-pyridine-2-carboxylic acid (2-phenyl-imidazo[1,2-a]pyrimidin-7-yl)-amide], the IC50 was 42 nM.
As for `CC(NC(=O)c1cnn(C)c1C(=O)Nc1ccn2cc(-c3ccccc3)nc2n1)c1cccnc1` (centres unmarked) [Example 139, 1-methyl-N5-(2-phenylimidazo[1,2-a]pyrimidin-7-yl)-N4-(1-(pyridin-3-yl)ethyl)-1H-pyrazole-4,5-dicarboxamide], the IC50 turned out to be 148 nM.
In the case of `Cc1cc(Br)c(C)c(C(=O)Nc2ccn3cc(-c4ccccc4)nc3n2)n1` [Example 24, 4-Bromo-3,6-dimethyl-pyridine-2-carboxylic acid (2-phenyl-imidazo[1,2-a]pyrimidin-7-yl)-amide], the IC50 turned out to be 321 nM.
Under `Cn1ncc(C(=O)NCc2ccccn2)c1C(=O)Nc1ccn2cc(-c3ccccc3)nc2n1` [Example 118, 1-methyl-N5-(2-phenylimidazo[1,2-a]pyrimidin-7-yl)-N4-(pyridin-2-ylmethyl)-1H-pyrazole-4,5-dicarboxamide] stands 11.9 nM.
Consider `Cn1ncc(C(=O)N2CCC2)c1C(=O)Nc1ccn2cc(-c3cccc(F)c3)nc2n1` [Example 91, 4-(Azetidine-1-carbonyl)-2-methyl-2H-pyrazole-3-carboxylic acid [2-(3-fluoro-phenyl)-imidazo[1,2-a]pyrimidin-7-yl]-amide], for which the IC50 is 6.1 nM.
Then `COc1cccc(-c2cn3ccc(NC(=O)c4c(C(=O)N(C)C)cnn4C)nc3n2)c1` [Example 85, 2-Methyl-2H-pyrazole-3,4-dicarboxylic acid 4-dimethylamide 3-{[2-(3-methoxy-phenyl)-imidazo[1,2-a]pyrimidin-7-yl]-amide}], with 4 nM; and `O=C(Nc1ccn2cc(-c3ccccc3)nc2n1)c1ccnn1-c1ccccc1` [Example 4, 2-Phenyl-2H-pyrazole-3-carboxylic acid (2-phenyl-imidazo[1,2-a]pyrimidin-7-yl)-amide], with 671 nM.
Consider `COc1ncccc1CNC(=O)c1cnn(C)c1C(=O)Nc1ccn2cc(-c3ccccc3)nc2n1` [Example 161, N4-((2-methoxypyridin-3-yl)methyl)-1-methyl-N5-(2-phenylimidazo[1,2-a]pyrimidin-7-yl)-1H-pyrazole-4,5-dicarboxamide], for which the IC50 was determined as 547 nM.
